ChEMBL document CHEMBL1159076, “Toosendanin: synthesis of the AB-ring and investigations of its anti-botulinum properties (Part II)” (Bioorg Med Chem, 2010)
The source made the active and inactive calls. No cut-off for these calls is given here.

Tests used:
[1] = molecular target: Botulinum neurotoxin type A (Clostridium botulinum (strain Hall / ATCC 3502 / NCTC 13319 / Type A)) (UniProt P0DPI1); test: Inhibition of Clostridium botulinum strain Hall A hyper botulinum neurotoxin type A1 in rat spinal cord cells assessed as intact SNAP25 protein level at 1 mM after 24 hrs by Western blot using monoclonal anti-SNAP25 antibody; format: cell-based
Chain of Botulinum neurotoxin type A (Clostridium botulinum (strain Hall / ATCC 3502 / NCTC 13319 / Type A)) (P0DPI1 2-448 limits assumed): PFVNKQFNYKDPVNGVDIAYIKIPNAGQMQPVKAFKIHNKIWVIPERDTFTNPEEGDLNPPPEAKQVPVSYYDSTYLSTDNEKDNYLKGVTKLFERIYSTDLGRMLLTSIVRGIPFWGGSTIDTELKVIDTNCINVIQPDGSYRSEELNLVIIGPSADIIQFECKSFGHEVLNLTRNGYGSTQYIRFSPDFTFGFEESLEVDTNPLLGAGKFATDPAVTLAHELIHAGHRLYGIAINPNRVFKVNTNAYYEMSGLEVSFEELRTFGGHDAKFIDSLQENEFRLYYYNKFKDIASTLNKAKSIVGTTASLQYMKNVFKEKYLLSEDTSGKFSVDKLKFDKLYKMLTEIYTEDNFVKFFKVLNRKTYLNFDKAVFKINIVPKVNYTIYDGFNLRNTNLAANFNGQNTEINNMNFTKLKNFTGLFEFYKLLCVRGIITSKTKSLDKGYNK

[2] = molecular target: Botulinum neurotoxin type A (Clostridium botulinum (strain Hall / ATCC 3502 / NCTC 13319 / Type A)) (UniProt P0DPI1); test: Inhibition of Clostridium botulinum strain Hall A hyper botulinum neurotoxin type A1 in rat spinal cord cells assessed as intact SNAP25 protein level at 200 uM after 24 hrs by Western blot using monoclonal anti-SNAP25 antibody; format: cell-based

| SMILES | inhibition [1] | inhibition [2] |
| --- | --- | --- |
| CC(=O)O[C@@H]1C[C@H](O)[C@]23CC[C@H](O)C[C@H]2[C@H]1[C@H](O)OC3 | inactive | – |
| CC(=O)O[C@@H]1C[C@H](O)[C@@]23CO[C@@H](O)[C@]1(C)[C@@H]2C[C@@H](O)[C@]1(C)[C@@H]3C(=O)[C@H](OC(C)=O)[C@@]2(C)[C@H](c3ccoc3)C[C@H]3O[C@]321 | – | Active |
| CC(=O)O[C@@H]1C[C@H](O)[C@]23CC[C@@H](O)C[C@H]2[C@H]1[C@H](O)OC3 | inactive | – |
